Measured values taken from patent US20090170867A1, “TRPV1 ANTAGONISTS INCLUDING SULFONAMIDE SUBSTITUENT AND USES THEREOF” (Shionogi & Co., Ltd., priority 2007, published 2009).

Target: T1, human TRPV1 (Homo sapiens, UniProt Q8NER1)
T1 construct: using primers designed surrounding the complete hTRPV1 open reading frame; expressed in transfected cells; host or cells: CHO-K1 cells stably transfected with pcDNA3.1(-)-hVR1 plasmid
Assay: Capsaicin-based assay, Protocol 2 (TRPV1/CHO cells, Fluo-4, FLIPR)
Assay type: cell-based
Conditions: capsaicin 100 nM final, mean ± SEM, number of trials in parentheses, read-out: TRPV1 IC50 Potency, Human Capsaicin CHO (hCAP-CHO)
Source text: The TRPV1/CHO cell line was generated as described below. […] The resulting PCR products were purified from agarose gels using Gel Band Purification Kit (GE Healthcare Bioscience) and were subcloned into pCR-Blunt vector (Invitrogen). The cloned cDNA was fully sequenced using a fluorescent dye-terminator reagent (BigDye Terminator ver3.1 Cycle Sequencing Kit, Applied Biosystems) and ABI Prism 3100 genetic analyzer (Applied Biosystems). The pCR-Blunt vector containing the hTRPV1 cDNA was subjected to restriction digestion with EcoRI. The restriction fragment was subcloned into expression vector pcDNA3.1 (-) (Invitrogen) and named pcDNA3.1 (-)-hVR1 plasmid. The sequence of the cDNA encoding TRPV1 is available at GenBank accession number AJ277028. […] The cells were transfected with the pcDNA3.1 (-)-hVR1 plasmid using FuGENE6 (Roche) according to the manufacturer's protocol. 24 hr after transfection, neomycin-resistant cells were selected using 1 mg/mL G418 (Nacalai Tesque). […] The cells expressing hTRPV1 were cultured in the growth medium supplemented with 1 mg/mL G418. […] Subsequently, the cells were loaded by incubation in 0.1 mL of wash buffer containing Fluo-4 at 3 μM final concentration. After 1 hour, the cells were washed twice with 0.2 mL wash buffer and resuspended in 0.1 mL wash buffer. The plates were then transferred to a Fluorescence Imaging Plate Reader (Molecular Devices). Fluorescence intensity was monitored for 15 seconds to establish a baseline. […] The final concentration of the compound was adjusted to range from 100 μM to 1.5625 μM. […] Data were collected over the entire time course and analyzed using Excel and the curve-fitting formula GraphPad Prism.

T1 sequence (Q8NER1 whole entry): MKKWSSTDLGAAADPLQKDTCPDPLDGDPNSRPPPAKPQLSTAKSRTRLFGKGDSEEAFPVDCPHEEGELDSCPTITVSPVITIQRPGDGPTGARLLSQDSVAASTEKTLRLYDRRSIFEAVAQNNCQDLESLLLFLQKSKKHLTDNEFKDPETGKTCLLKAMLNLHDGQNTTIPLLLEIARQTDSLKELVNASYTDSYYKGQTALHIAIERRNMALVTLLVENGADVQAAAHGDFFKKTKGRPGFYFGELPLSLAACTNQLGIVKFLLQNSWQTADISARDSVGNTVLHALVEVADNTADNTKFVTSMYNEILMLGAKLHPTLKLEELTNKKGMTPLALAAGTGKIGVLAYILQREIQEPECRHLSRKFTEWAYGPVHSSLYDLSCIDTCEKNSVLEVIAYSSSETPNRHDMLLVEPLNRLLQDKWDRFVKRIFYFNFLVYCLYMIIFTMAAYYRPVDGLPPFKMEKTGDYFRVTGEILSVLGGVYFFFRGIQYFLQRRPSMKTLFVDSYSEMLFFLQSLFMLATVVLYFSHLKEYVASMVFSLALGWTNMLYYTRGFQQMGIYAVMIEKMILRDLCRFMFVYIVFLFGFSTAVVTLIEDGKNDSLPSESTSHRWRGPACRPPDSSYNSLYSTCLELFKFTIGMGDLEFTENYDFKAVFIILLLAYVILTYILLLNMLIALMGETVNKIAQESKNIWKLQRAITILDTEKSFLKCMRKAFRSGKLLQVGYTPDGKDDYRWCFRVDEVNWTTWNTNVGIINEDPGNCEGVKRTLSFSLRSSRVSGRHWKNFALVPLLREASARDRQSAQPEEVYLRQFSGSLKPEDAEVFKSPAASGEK

Structure (SMILES)	IC50 [nM]
CC1(c2ncc([C@@H](O)CO)cc2F)CCN(C(=O)Nc2ccc(C(F)(F)F)c(Cl)c2)CC1 [Compound P5]	49.5
O=C(Nc1ccc(S(=O)(=O)N2CCCC2)c(C(F)(F)F)c1)N1CC=C(c2ncc([C@@H](O)CO)cc2Cl)CC1 [Compound C3]	541 ± 216
COc1cc(NC(=O)N2CCC(F)(c3ncc([C@@H](O)CO)cc3F)CC2)ccc1C(F)(F)F [Compound D5]	133 ± 29.1
O=C(Nc1nc2ccc(Cl)cc2[nH]1)N1CC=C(c2ncc([C@H](O)CO)cc2Cl)CC1 [Compound P4]	1810 ± 302
Cc1cc(NC(=O)N2CC=C(c3ncc([C@@H](O)CO)cc3Cl)CC2)ccc1OC(F)(F)F [Compound R5]	346
O=C(Nc1ccc(C(F)(F)F)c(-c2ccccc2)c1)N1CC=C(c2ncc(CO)cc2Cl)CC1 [Compound D3]	565 ± 58.6
O=C(Nc1ccc(C(F)(F)F)cn1)N1CC=C(c2ncc([C@H](O)CO)cc2F)CC1 [Compound K4]	210 ± 19.5
CN(C(=O)N1CC=C(c2ncc([C@H](O)CO)cc2Cl)CC1)c1ccc(C(F)(F)F)cc1 [Compound S4]	7030 ± 2060
O=C(Nc1nc2ccc(F)cc2s1)N1CCC(F)(c2ncc([C@H](O)CO)cc2F)CC1 [Compound F5]	166 ± 24.7
COc1cc(NC(=O)N2CC=C(c3ncc([C@H](O)CO)cc3Cl)CC2)ccc1C(F)(F)F [Compound A2]	84.1 ± 11.2
CCCOc1cc(NC(=O)N2CC=C(c3ncc([C@H](O)CO)cc3Cl)CC2)ccc1C(F)(F)F [Compound O1]	41.1 ± 17.8
O=C(Nc1ccc(C(F)(F)F)cc1)N1CCC(F)(c2ncc(C(O)(CO)CO)cc2Cl)CC1 [Compound T5]	451 ± 92.4
O=C(Nc1nc2ccc(F)cc2s1)N1CC=C(c2ncc([C@H](O)CO)cc2F)CC1 [Compound L4]	439 ± 140
O=C(Nc1ccc(C(F)(F)F)cc1)N1CCC(F)(c2ncc(C(O)CO)cc2Cl)CC1 (stereo not shown) [Compound A1]	7 ± 1.8
O=C(Nc1ccc(S(=O)(=O)C(F)(F)F)cc1)N1CC=C(c2ncc([C@@H](O)CO)cc2Cl)CC1 [Compound O3]	46 ± 11.3
O=C(Nc1nc2ccc(Cl)cc2[nH]1)N1CCC(F)(c2ncc([C@H](O)CO)cc2Cl)CC1 [Compound N4]	1310 ± 220
COCc1cnc(C2=CCN(C(=O)Nc3ccc(C(F)(F)F)cn3)CC2)c(Cl)c1 [Compound H3]	1110 ± 134
O=C(Nc1ccc(OC(F)(F)F)c(Cl)c1)N1CC=C(c2ncc([C@H](O)CO)cc2Cl)CC1 [Compound H2]	118 ± 22.1
O=C(Nc1nc2ccc(F)cc2s1)N1CC=C(c2ncc([C@H](O)CO)cc2Cl)CC1 [Compound R1]	51 ± 18.8
O=C(Nc1ccc(C(F)(F)F)cc1)N1CCC(F)(c2ncc([C@@H](O)CO)cc2F)CC1 [Compound X4]	38.4 ± 8
O=C(Nc1nc2ccc(F)cc2s1)N1CCC(F)(c2ncc([C@@H](O)CO)cc2F)CC1 [Compound N5]	140
COc1cc(NC(=O)N2CCC(F)(c3ncc([C@H](O)CO)cc3Cl)CC2)ccc1C(F)(F)F [Compound V3]	34 ± 9.2

Structure (SMILES)	IC50 [nM]
O=C(Nc1ccc(S(=O)(=O)C(F)(F)F)cc1)N1CC=C(c2ncc([C@H](O)CO)cc2F)CC1 [Compound P1]	50.5 ± 9.5
COc1cc(C(F)(F)F)ccc1NC(=O)N1CC=C(c2ncc(CO)cc2Cl)CC1 [Compound J3]	2940 ± 319
CS(=O)(=O)NCc1cnc(C2=CCN(C(=O)Nc3ccc(C(F)(F)F)cc3)CC2)c(Cl)c1 [Compound M4]	471 ± 127
O=C(Nc1nc2ccc(Cl)cc2[nH]1)N1CC=C(c2ncc([C@@H](O)CO)cc2Cl)CC1 [Compound Q4]	2900 ± 302
COc1cc(NC(=O)N2CC=C(c3ncc([C@@H](O)CO)cc3Cl)CC2)ccc1C(F)(F)F [Compound X5]	230 ± 65.5
O=C(Nc1ccc(C(F)(F)F)c(F)c1)N1CCC(F)(c2ncc([C@@H](O)CO)cc2Cl)CC1 [Compound U5]	19.9 ± 6.9
COc1cc(NC(=O)N2CCC(F)(c3ncc([C@@H](O)CO)cc3Cl)CC2)ccc1C(F)(F)F [Compound E4]	75.7 ± 12.8
CN(C)CC(O)c1cnc(C2=CCN(C(=O)Nc3ccc(C(F)(F)F)cc3)CC2)c(Cl)c1 (single isomer, unassigned) [Compound L5]	> 10000
CC1(C)CCOc2cc(NC(=O)N3CC=C(c4ncc([C@H](O)CO)cc4F)CC3)ccc21 [Compound A4]	55.1 ± 8.6
CC1(c2ncc([C@H](O)CO)cc2F)CCN(C(=O)Nc2ccc(C(F)(F)F)c(Cl)c2)CC1 [Compound Q3]	14.3 ± 1.3
O=C(Nc1nc2ccc(Cl)cc2[nH]1)N1CCC(F)(c2ncc([C@H](O)CO)cc2F)CC1 [Compound R4]	3280 ± 761
CN1CCCc2ccc(NC(=O)N3CC=C(c4ncccc4F)CC3)cc21 [Compound K5]	2750 ± 542
Cc1cc2nc(NC(=O)N3CC=C(c4ncc([C@H](O)CO)cc4Cl)CC3)sc2cc1C [Compound O5]	244
O=C(Nc1ccc(C(F)(F)F)cc1)N1CC=C(c2ncc(C(CO)CO)cc2Cl)CC1 [Compound O4, 4-(3-chloro-5-(1,3-dihydroxypropan-2-yl)pyridin-2-yl)-N-(4-(trifluoromethyl)phenyl)-5,6-dihydropyridine-1(2H)-carboxamide]	1520 ± 339
O=C(Nc1nc2ccc(Cl)cc2[nH]1)N1CCC(F)(c2ncc([C@@H](O)CO)cc2F)CC1 [Compound J5]	1880 ± 634
O=C(Nc1ccc(Cl)c(C(F)(F)F)c1)N1CC=C(c2ncc([C@H](O)CO)cc2Cl)CC1 [Compound T2]	226 ± 69.3
CC(C)c1cc(NC(=O)N2CC=C(c3ncccc3Cl)CC2)ccc1OC(F)(F)F [Compound 205]	> 25000
Cc1cc(NC(=O)N2CCC(F)(c3ncc([C@H](O)CO)cc3F)CC2)ccc1OC(F)(F)F [Compound R3]	15.5 ± 3.5
CC(C)(C)c1ccc(NC(=O)N2CC=C(c3ncc([C@@H](O)CO)cc3F)CC2)cc1 [Compound E1]	18.5 ± 4.9
CC(C)S(=O)(=O)c1ccc(NC(=O)N2CC=C(c3ncc(CO)cc3Cl)CC2)cc1C(F)(F)F [Compound I3]	1360 ± 337
O=C(Nc1ccc(C(F)(F)F)cn1)N1CC=C(c2ncc(CCO)cc2Cl)CC1 [Compound D6]	621 ± 117
